Test results as given in patent US10940139B2, “Compounds that interact with the Ras superfamily for the treatment of cancers, inflammatory diseases, rasopathies, and fibrotic disease” (Shy Therapeutics LLC, priority 2017, dated 2021).

Assays:
Assay in all cases: Ras GTP binding domain inhibition assay (labeled GTP)
[1] = molecular target: KRas G12C/Q61H double mutant (Homo sapiens (Human), UniProt P01116, G12C/Q61H); conditions: 20 μM compound; read-out: % Inhibition at 20 μM KRas G12C Q61H
Procedure, shortened: (§1)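 Labelled-GTP binding: plate-captured His-KRas protein was pre-exposed to compound for 3 h at room temperature (single 20 μM point or dilution series, 1% DMSO, Tris pH 7.5/MgCl2/DTT buffer). Cy3- or Cy5-GTP was then added for 45 min. Washed wells were read for retained fluorescence to give inhibition or IC50.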

[2] = molecular target: KRas Q61H mutant (Homo sapiens (Human), UniProt P01116, Q61H); conditions: 20 μM compound; read-out: % Inhibition at 20 μM KRas Q61H
Chain of KRas Q61H mutant (P01116-2 other isoform, or with tags, fused parts or gaps Q61H): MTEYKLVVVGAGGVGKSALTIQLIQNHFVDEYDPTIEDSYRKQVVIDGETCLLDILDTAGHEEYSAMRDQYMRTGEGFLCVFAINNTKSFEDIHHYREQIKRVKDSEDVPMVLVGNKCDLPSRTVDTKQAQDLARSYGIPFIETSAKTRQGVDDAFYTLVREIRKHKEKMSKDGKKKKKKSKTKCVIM
Procedure, shortened: as §1

[3] = molecular target: KRas G12D/Q61H double mutant (Homo sapiens (Human), UniProt P01116, G12D/Q61H); conditions: for inhibition at 20 µM: 20 μM compound, read-out: % Inhibition at 20 μM KRas G12D Q61H; for IC50: serial dilution, read-out: KRas G12D Q61H (classes E-H, IC50)
Chain of KRas G12D/Q61H double mutant (P01116-2 other isoform, or with tags, fused parts or gaps G12D/Q61H): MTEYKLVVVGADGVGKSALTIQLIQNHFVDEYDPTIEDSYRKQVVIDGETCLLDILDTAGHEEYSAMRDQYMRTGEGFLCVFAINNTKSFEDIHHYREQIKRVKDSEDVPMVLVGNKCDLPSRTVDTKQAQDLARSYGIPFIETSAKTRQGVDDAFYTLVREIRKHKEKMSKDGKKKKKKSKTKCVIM
Procedure, shortened: as §1

Chain of KRas G12C/Q61H double mutant (P01116-2 other isoform, or with tags, fused parts or gaps G12C/Q61H): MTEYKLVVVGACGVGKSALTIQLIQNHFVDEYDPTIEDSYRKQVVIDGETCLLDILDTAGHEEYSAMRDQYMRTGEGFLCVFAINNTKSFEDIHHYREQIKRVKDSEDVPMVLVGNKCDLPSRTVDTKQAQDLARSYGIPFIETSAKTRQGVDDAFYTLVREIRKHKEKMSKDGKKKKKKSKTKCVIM

Row | SMILES | inhibition at 20 µM [1] [%] | inhibition at 20 µM [2] [%] | inhibition at 20 µM [3] [%] | IC50 [3] [µM]
1 | Cn1cc(C2CN(C(=O)c3csc4c(O)nc(-c5ccccn5)nc34)CCN2)cn1 (centres unmarked) [drawing 2777] | 51 to 75 | 51 to 75 | 1 to 25 | –
2 | O=C(c1csc2c(O)nc(-c3ccccn3)nc12)N1CCNC(Cc2ccccc2)C1 (centres unmarked) [drawing 2778] | 51 to 75 | 51 to 75 | 25 to 50 | –
3 | O=C(NCCc1ccncc1)c1csc2nc(-c3ccccn3)nc(N3CCOCC3)c12 [drawing 2779] | 51 to 75 | 51 to 75 | 0 | –
4 | COc1ccncc1CCNC(=O)c1csc2nc(-c3ccccn3)nc(N3CCOCC3)c12 [drawing 2780] | 1 to 25 | 25 to 50 | 1 to 25 | –
5 | COc1cc(CCN(C)C(=O)c2csc3nc(-c4ccccn4)nc(N4CCOCC4)c23)ccn1 [drawing 2781] | 25 to 50 | 25 to 50 | 0 | –
6 | COc1ccnc(-c2nc(O)c3c(C#N)csc3n2)c1 [drawing 2782] | 25 to 50 | 51 to 75 | 0 | –
7 | O=C(NCCc1ccnc(O)c1)c1csc2nc(-c3ccccn3)nc(N3CCOCC3)c12 [drawing 2783] | 1 to 25 | 1 to 25 | 1 to 25 | –
8 | O=C(NCCc1cncnc1)c1csc2nc(-c3ccccn3)nc(N3CCOCC3)c12 [drawing 2784] | 25 to 50 | 25 to 50 | 1 to 25 | –
9 | O=C(NCCc1ccc(O)c(O)c1)c1csc2nc(-c3ccccn3)nc(N3CCOCC3)c12 [drawing 2785] | 25 to 50 | 1 to 25 | 0 | –
10 | O=C(NCCc1nnn[nH]1)c1csc2nc(-c3ccccn3)nc(N3CCOCC3)c12 [drawing 2786] | 25 to 50 | 51 to 75 | 1 to 25 | –
11 | N#Cc1cccc(CCNC(=O)c2csc3nc(-c4ccccn4)nc(N4CCOCC4)c23)c1 [drawing 2787] | 25 to 50 | 25 to 50 | 1 to 25 | –
12 | CN(CCc1cccc(C#N)c1)C(=O)c1csc2nc(-c3ccccn3)nc(N3CCOCC3)c12 [drawing 2788] | 51 to 75 | 51 to 75 | 1 to 25 | –
13 | COCCCCNC(=O)c1csc2nc(-c3ccccn3)nc(N3CCOCC3)c12 [drawing 2789] | 1 to 25 | 25 to 50 | 1 to 25 | –
14 | COCCCCN(C)C(=O)c1csc2nc(-c3ccccn3)nc(N3CCOCC3)c12 [drawing 2790] | 25 to 50 | 51 to 75 | 1 to 25 | –
15 | CNS(=O)(=O)CCCNC(=O)c1csc2nc(-c3ccccn3)nc(N3CCOCC3)c12 [drawing 2791] | 25 to 50 | 25 to 50 | 1 to 25 | –
16 | COCCN(CCOC)c1nc(-c2ccccn2)nc2scc(C(=O)NCCc3ccc(OC)nc3)c12 [drawing 2792] | 1 to 25 | 25 to 50 | 1 to 25 | –
17 | COCCCCNC(=O)c1csc2nc(-c3ccccn3)nc(N(CCOC)CCOC)c12 [drawing 2793] | 25 to 50 | 51 to 75 | 0 | –
18 | CC(C(=O)Nc1ccnc(-c2ccccn2)n1)c1ccc(C#N)cc1 (centres unmarked) [drawing 2794] | 51 to 75 | 51 to 75 | 1 to 25 | –
19 | COc1ccc2c(c1)CCC2C(=O)Nc1ccnc(-c2ccccn2)n1 (centres unmarked) [drawing 2795] | 1 to 25 | 25 to 50 | 1 to 25 | –
20 | N#Cc1ccc(COCC(=O)Nc2ccnc(-c3ccccn3)n2)cc1 [drawing 2796] | 25 to 50 | 51 to 75 | 0 | –
21 | Cc1cnc(-c2ccccn2)nc1NC(=O)C(C)c1ccc(C#N)cc1 (centres unmarked) [drawing 2797] | 51 to 75 | 51 to 75 | 1 to 25 | –
22 | CC(C(=O)Nc1nc(-c2ccccn2)nc2sccc12)c1ccc(C#N)cc1 (centres unmarked) [drawing 2798] | 76 to 100 | 76 to 100 | 1 to 25 | –
23 | COc1cnc(CN)[nH]c1=O [drawing 2801] | 1 to 25 | 25 to 50 | 25 to 50 | –
24 | COc1ccc(N2CCN(C(=O)c3csc4c(O)nc(-c5ccccn5)nc34)CC2)cc1O [drawing 2802] | 51 to 75 | 51 to 75 | 1 to 25 | –
25 | O=C(c1csc2c(O)nc(-c3ccccn3)nc12)N1CCN(c2ccc(O)c(Cl)c2)CC1 [drawing 2803] | 51 to 75 | 51 to 75 | 51 to 75 | 11 to 30

Row | SMILES | inhibition at 20 µM [1] [%] | inhibition at 20 µM [2] [%] | inhibition at 20 µM [3] [%] | IC50 [3] [µM]
26 | CC(c1ccccc1)N1CCN(C(=O)c2csc3c(O)nc(-c4ccccn4)nc23)CC1 (centres unmarked) [drawing 2804] | 51 to 75 | 76 to 100 | 51 to 75 | 11 to 30
27 | O=C(c1csc2c(O)nc(-c3ccccn3)nc12)N1CCOC(CN2CCOCC2)C1 (centres unmarked) [drawing 2805] | 25 to 50 | 51 to 75 | 1 to 25 | –
28 | O=C(c1csc2c(O)nc(-c3ccccn3)nc12)N1CCNC(c2ccccc2Cl)C1 (centres unmarked) [drawing 2806] | 51 to 75 | 76 to 100 | 25 to 50 | –
29 | O=C(c1csc2c(O)nc(-c3ccccn3)nc12)N1CCNC(c2ccc(F)cc2)C1 (centres unmarked) [drawing 2807] | 76 to 100 | 76 to 100 | 1 to 25 | –
30 | COCCCCNC(=O)c1csc2nc(-c3ccccn3)nc(N3CCS(=O)(=O)CC3)c12 [drawing 2826] | 1 to 25 | 1 to 25 | 1 to 25 | –
31 | COc1cccc(CC2CN(C(=O)c3csc4c(O)nc(-c5ccccn5)nc34)CCN2)c1 (centres unmarked) [drawing 2830] | 51 to 75 | 51 to 75 | 51 to 75 | –
32 | O=C(c1csc2c(O)nc(-c3ccccn3)nc12)N1CCNC(Cc2ccc(F)cc2)C1 (centres unmarked) [drawing 2831] | 51 to 75 | 51 to 75 | 51 to 75 | –
33 | O=C(c1csc2c(O)nc(-c3ccccn3)nc12)N1CCNC(Cc2cccc(F)c2)C1 (centres unmarked) [drawing 2832] | 51 to 75 | 51 to 75 | 51 to 75 | –
34 | COc1ccnc(-c2nc(O)c3c(C(F)(F)F)csc3n2)c1 [drawing 2833] | 25 to 50 | 25 to 50 | 25 to 50 | –
35 | Nc1nc(-c2ccccn2)nc2c(-c3ccccc3Cl)csc12 [drawing 2835] | 1 to 25 | 1 to 25 | 1 to 25 | –
36 | Cc1sc2c(N)nc(-c3ccccn3)nc2c1-c1ccccc1 [drawing 2837] | 1 to 25 | 1 to 25 | 25 to 50 | –
37 | O=C(c1cc2nc(-c3ccccn3)nc(O)c2s1)N1CCOC(c2ccccc2)C1 (centres unmarked) [drawing 2842] | 51 to 75 | 76 to 100 | 51 to 75 | –
38 | O=C(NCCc1cccnc1)c1cc2nc(-c3ccccn3)nc(O)c2s1 [drawing 2843] | 51 to 75 | 51 to 75 | 25 to 50 | –
39 | Cc1ccc(OC2CCCC2)c(-c2csc3c(O)nc(-c4ccccn4)nc23)c1 [drawing 2844] | 51 to 75 | 51 to 75 | 51 to 75 | –
40 | CC(C)(C)c1ccc(-c2csc3c(O)nc(-c4ccccn4)nc23)cc1 [drawing 2847] | 51 to 75 | 51 to 75 | 51 to 75 | –
41 | COc1ccc(CCNC(=O)c2csc3nc(-c4ccccn4)nc(N4CCS(=O)(=O)CC4)c23)cn1 [drawing 2853] | 25 to 50 | 25 to 50 | 25 to 50 | –
42 | O=C(NCCc1cnc(O)nc1)c1csc2nc(-c3ccccn3)nc(N3CCS(=O)(=O)CC3)c12 [drawing 2854] | 1 to 25 | 25 to 50 | 25 to 50 | –
43 | N#Cc1ccc2c(c1)CCCC2C(=O)Nc1ccnc(-c2ccccn2)n1 (centres unmarked) [drawing 2855] | 51 to 75 | 51 to 75 | 51 to 75 | –
44 | Oc1nc(-c2ccccn2)nc2c(-c3ccc(OC4CCOC4)cc3)csc12 (centres unmarked) [drawing 2862] | 1 to 25 | 25 to 50 | 25 to 50 | –
45 | Oc1nc(-c2ccccn2)nc2c(-c3ccc(OC4CCCC4)cc3)csc12 [drawing 2863] | 25 to 50 | 25 to 50 | 25 to 50 | –
46 | Oc1nc(-c2ccccn2)nc2c(-c3ccc(C4CCC4)cc3)csc12 [drawing 2865] | 51 to 75 | 51 to 75 | 51 to 75 | –
47 | Oc1nc(-c2ccccn2)nc2c(-c3ccccc3OC3CCCCC3)csc12 [drawing 2866] | 51 to 75 | 51 to 75 | 51 to 75 | –
48 | Oc1nc(-c2ccccn2)nc2c(-c3ccc(OC4CCOCC4)cc3)csc12 [drawing 2867] | 25 to 50 | 25 to 50 | 25 to 50 | –
49 | COc1cc(C)c(-c2csc3c(O)nc(-c4ccccn4)nc23)cc1C [drawing 2869] | 1 to 25 | 1 to 25 | 25 to 50 | –
50 | Cc1cc(OC(F)F)ccc1-c1csc2c(O)nc(-c3ccccn3)nc12 [drawing 2878] | 25 to 50 | 25 to 50 | 25 to 50 | –
